Each structure is given as a SMILES string. Converted amounts (≈) assume the structure as drawn. Like-named read-outs stand apart in the source and are kept apart here.

One test deals with Staphylococcus aureus. The test can be described thus: MIC, broth microdilution (CLSI M07-A9). Format: cell-based.
Test [1] relates to Staphylococcus aureus (MRSA and MSSA strains). Put plainly: Synergy time-kill assay (6 hours, combination compared to most active single agent). Format: cell-based. Conditions: ½ MIC PlySs2 or ¼ MIC vancomycin alone, up to 6 hours.
Test [2] shares this test system. The test can be described thus: Time kill assay, single agents at 1×MIC (CLSI). Format: cell-based. The settings on record: 1×MIC.
Test [3] relates to S. aureus. The test can be described thus: Murine bacteremia model, survival. Format: in vivo, BALB/c mice. Conditions: high challenge (10^9 CFU MRSA MW2), dosing at 2 hours; vancomycin 110 mg/kg twice daily, PlySs2 5.25 mg/kg (FIG. 27E).
Test [4] deals with S. aureus. Put plainly: Cell envelope binding of BODIPY-fluorescein-labeled antibiotics. Format: cell-based. The method, then:
As a complement to the synergy studies, daptomycin and vancomycin cell envelope-binding was examined using BODIPY-fluorescein-labeled antibiotics in the presence and absence of sub-MIC levels of CF-301. […] Similarly, cell wall-labeling with vancomycin occurs within 5 minutes in the presence of CF-301 (⅛^th MIC) versus 30 minutes without CF-301 (FIG. 20B). For both antibiotics, the labeling was first observed at bacterial division planes.

Test [5] deals with MRSA Staphylococcus aureus strain (MW2). The test can be described thus: microbe, parasite or virus in culture. Type of test: cell-based. The settings on record: for MIC: Staphylococcus aureus, MRSA, 600 h.
Setting [6] is: DRSA (n = 8), with reducing agent.

As to `CN[C@H](CC(C)C)C(=O)N[C@H]1C(=O)N[C@@H](CC(N)=O)C(=O)N[C@H]2C(=O)N[C@H]3C(=O)N[C@H](C(=O)N[C@H](C(=O)O)c4cc(O)cc(O)c4-c4cc3ccc4O)[C@H](O)c3ccc(c(Cl)c3)Oc3cc2cc(c3O[C@@H]2O[C@H](CO)[C@@H](O)[C@H](O)[C@H]2O[C@H]2C[C@](C)(N)[C@H](O)[C@H](C)O2)Oc2ccc(cc2Cl)[C@H]1O` [Vancomycin, vancomycin], the MIC90 was found to be 1 with Staphylococcus aureus (setting [6]); 1 against Staphylococcus aureus (LRSA (n = 5), with reducing agent); 1 against Staphylococcus aureus (MRSA (n = 45), with reducing agent); 1 against Staphylococcus aureus (MSSA (n-28), with reducing agent); 0.7 µM (≈ 1.01 µg/mL) against Staphylococcus aureus (Staphylococcus aureus); 0.7 µM (≈ 1.01 µg/mL) with Staphylococcus aureus (Staphylococcus aureus, MRSA). Besides, the MIC90 against Staphylococcus aureus (Staphylococcus aureus, MSSA) was 0.7 µM (≈ 1.01 µg/mL); against Staphylococcus aureus (Staphylococcus aureus, VISA), 2.7 µM (≈ 3.91 µg/mL); against Staphylococcus aureus (Staphylococcus aureus, VRSA), > 10.6 µM; in the test with Staphylococcus aureus (VISA (n = 10), with reducing agent) it was 4; against Staphylococcus aureus (VRSA (n = 14), with reducing agent), >16. Besides, the “MIC90 [uM]” value in the test with Staphylococcus aureus (setting [6]) was found to be 0.7 µM (≈ 1.01 µg/mL). In addition, in test [1], the “effectiveness alone at sub-MIC doses” value is reported as “ineffective or poorly effective”. In test [2], the “kill within 6 hours” value was 2 log10. Further, in the test with S. aureus [3], the “24 hour survival rate” value is 20%. Also, the “72 hour survival rate” value in the test on S. aureus [3] amounted to 3%. Besides, the entries for the “time to cell wall-labeling with vancomycin” value in the test with S. aureus [4] (in the presence of CF-301 (⅛^th MIC)) and with S. aureus [4] (without CF-301) were ≤ 5 min and 30 min, respectively. Further, the MIC in test [5] (read-out: vancomycin MIC, ending values, passaged with PlySs2 (8 ug/ml) plus vancomycin, 25 day) came out at 4 µg/mL; in test [5] (read-out: vancomycin MIC, ending values, three vancomycin-only cultures, 25-day study), 16 µg/mL (≈ 11 µM). Moreover, the “antibiotic MIC, starting value” in test [5] (before serial passage) worked out at 1 µg/mL. The “increase of vancomycin MIC” value was 2 to 4 fold in test [5] (passaged with PlySs2 (8 ug/ml) plus vancomycin) and 16 fold in test [5] (vancomycin-only cultures, 25-day study). The “vancomycin MIC, ending values” in test [5] (passaged with PlySs2 (8 ug/ml) plus vancomycin, 25 day) was found to be 2 µg/mL.
